System: adult patients with uncontrolled gout
Test: Serum uric acid (sUA) levels and sUA responder rate, open-label study of pegloticase with MTX (MIRROR OL)
Assay type: in vivo, human
Conditions: mITT Population
Procedure: The primary objective is to estimate the response rate during Month 6 (Weeks 20, 22, and 24), as measured by the sustained normalization of serum uric acid (SUA) to <6 mg/dL for at least 80% of the time during Month 6 in subjects receiving KXX with MTX.
The primary efficacy outcome endpoint is the sustained normalization of SUA to <6 mg/dL for at least 80% of the time during month 6 (weeks 20, 22, and 24) in subjects receiving KXX with MTX. […] Participants who achieve this endpoint were classified as “responders.” Serum uric acid (SUA) responders may also be defined as participants achieving and maintaining SUA <6 mg/dL for at least 80% of the time during Month 6 (Weeks 20, 22, and 24).
Blood samples may be collected prior to each pegloticase infusion for measurement of SUA levels using the Beckman Coulter AU System Uric Acid procedure. Participants were declared “non-responders” if there were SUA measures >6 mg/dL at 2 consecutive study visits beginning with the week 2 visit. […] This assumption and subsequent discontinuation of pegloticase was consistent with the protocol of large phase III randomized controlled trials and the product label. A formal stopping rule was 2 occasions of SUA levels of greater than 6 mg/dL.
Clinical Chemistry—Blood samples were collected prior to each pegloticase infusion for measurement of SUA levels (primary efficacy parameter) using the Beckman Coulter AU System Uric Acid procedure. In this procedure uric acid is converted to hydrogen peroxide. Hydrogen peroxide reacts with reagent to produce a chromophore which is read bichromatically at 660/800 nm. The amount of dye formed is proportional to the uric acid concentration in the sample.
Serum samples for measurement of SUA levels were collected at the Screening Visit, the Week −4 Visit (prior to the first dose of MTX), and the Week −2 Visit during the MTX Run-in Period; within 48 hours prior to each pegloticase infusion and after the end of each pegloticase infusion prior to discharge from the site during the Pegloticase+IMM Period; at the non-infusion Week 52/End of Study/Early Termination Visits and at the Post Treatment 3 and 6 Month Follow-up Visits. Additional serum samples for SUA levels were collected at optional non-infusion (Frequent Sampling) Visits at Weeks 1 and 7. […] Subjects with SUA level >6 mg/dL at 2 consecutive visits beginning at Week 2 visit discontinued treatment, completed the End of Pegloticase Infusion Visit procedures within 2 weeks and continued the subject visits according to the protocol (without treatment).
Efficacy analyses were performed using the modified intention-to-treat (mITT) population, defined as all enrolled subjects who received ≥1 dose of pegloticase. The proportion of Month 6 responders was summarized, along with a 95% confidence interval for the proportion. The proportion of Month 3 and overall (Months 3 and 6 combined) responders was analyzed similarly.
A subject was declared a non-responder if the subject had SUA level >6 mg/dL at 2 consecutive study visits beginning with the Week 2 Visit. In addition, a subject who withdraws from study treatment for any reason after the first dose of pegloticase in the KXX+MTX Period and prior to Month 6 (for the primary endpoint) or Month 3 (for the secondary endpoint) was considered a non-responder if SUA values were not collected at the planned time points.
Patients were administered oral MTX (15 mg/week) and folate (1 mg/day) 4 weeks prior to the first pegloticase infusion (Day 1) and throughout the pegloticase treatment period. Blood was drawn prior to each infusion to measure sUA level, monitor clinical parameters, and examine for ADA development. All patients followed typical IR prophylaxis protocols (fexofenadine one day before and the morning of each infusion and acetaminophen and IV corticosteroid the morning of each infusion).

## pegloticase
Week 20 - Post-Infusion
  Serum Uric Acid, Change from Baseline, Mean (SD): −8.97 (2.810) mg/dL
  Serum Uric Acid, Change from Baseline, Median: -8.80 mg/dL
  Serum Uric Acid, Observed, Mean (SD): 0.30 (0.000) mg/dL
  Serum Uric Acid, Observed, Median: 0.30 mg/dL
  sUA <6 mg/dL, n (%): 11 (100%)
Week 20 - Pre-Infusion
  Serum Uric Acid, Change from Baseline, Mean (SD): −8.97 (2.810) mg/dL
  Serum Uric Acid, Change from Baseline, Median: -8.80 mg/dL
  Serum Uric Acid, Observed, Mean (SD): 0.30 (0.000) mg/dL
  Serum Uric Acid, Observed, Median: 0.30 mg/dL
  sUA <6 mg/dL, n (%): 11 (100%)
Week 22 - Post-Infusion
  Serum Uric Acid, Change from Baseline, Mean (SD): −8.97 (2.810) mg/dL
  Serum Uric Acid, Change from Baseline, Median: -8.80 mg/dL
  Serum Uric Acid, Observed, Mean (SD): 0.30 (0.000) mg/dL
  Serum Uric Acid, Observed, Median: 0.30 mg/dL
  sUA <6 mg/dL, n (%): 11 (100%)
Week 22 - Pre-Infusion
  Serum Uric Acid, Change from Baseline, Mean (SD): −8.97 (2.810) mg/dL
  Serum Uric Acid, Change from Baseline, Median: -8.80 mg/dL
  Serum Uric Acid, Observed, Mean (SD): 0.30 (0.000) mg/dL
  Serum Uric Acid, Observed, Median: 0.30 mg/dL
  sUA <6 mg/dL, n (%): 11 (100%)
Week 24 - Post-Infusion
  Serum Uric Acid, Change from Baseline, Mean (SD): −9.18 (4.135) mg/dL
  Serum Uric Acid, Change from Baseline, Median: -9.30 mg/dL
  Serum Uric Acid, Observed, Mean (SD): 0.30 (0.000) mg/dL
  Serum Uric Acid, Observed, Median: 0.30 mg/dL
  sUA <6 mg/dL, n (%): 5 (100%)
Week 24 - Pre-Infusion
  Serum Uric Acid, Change from Baseline, Mean (SD): −8.97 (2.810) mg/dL
  Serum Uric Acid, Change from Baseline, Median: -8.80 mg/dL
  Serum Uric Acid, Observed, Mean (SD): 0.30 (0.000) mg/dL
  Serum Uric Acid, Observed, Median: 0.30 mg/dL
  sUA <6 mg/dL, n (%): 11 (100%)
Week 26 - Pre-Infusion
  Serum Uric Acid, Change from Baseline, Mean (SD): −9.11 (3.293) mg/dL
  Serum Uric Acid, Change from Baseline, Median: -8.95 mg/dL
  Serum Uric Acid, Observed, Mean (SD): 0.30 (0.000) mg/dL
  Serum Uric Acid, Observed, Median: 0.30 mg/dL
  sUA <6 mg/dL, n (%): 8 (100%)
Week 28 - Pre-Infusion
  Serum Uric Acid, Change from Baseline, Mean (SD): −9.11 (3.293) mg/dL
  Serum Uric Acid, Change from Baseline, Median: -8.95 mg/dL
  Serum Uric Acid, Observed, Mean (SD): 0.30 (0.000) mg/dL
  Serum Uric Acid, Observed, Median: 0.30 mg/dL
  sUA <6 mg/dL, n (%): 8 (100%)
Week 30 - Pre-Infusion
  Serum Uric Acid, Change from Baseline, Mean (SD): −9.11 (3.293) mg/dL
  Serum Uric Acid, Change from Baseline, Median: -8.95 mg/dL
  Serum Uric Acid, Observed, Mean (SD): 0.30 (0.000) mg/dL
  Serum Uric Acid, Observed, Median: 0.30 mg/dL
  sUA <6 mg/dL, n (%): 8 (100%)
Week 32 - Post-Infusion
  Serum Uric Acid, Change from Baseline, Mean (SD): −9.11 (3.293) mg/dL
  Serum Uric Acid, Change from Baseline, Median: -8.95 mg/dL
  Serum Uric Acid, Observed, Mean (SD): 0.30 (0.000) mg/dL
  Serum Uric Acid, Observed, Median: 0.30 mg/dL
  sUA <6 mg/dL, n (%): 8 (100%)
Week 32 - Pre-Infusion
  Serum Uric Acid, Change from Baseline, Mean (SD): −8.99 (2.961) mg/dL
  Serum Uric Acid, Change from Baseline, Median: -8.95 mg/dL
  Serum Uric Acid, Observed, Mean (SD): 0.30 (0.000) mg/dL
  Serum Uric Acid, Observed, Median: 0.30 mg/dL
  sUA <6 mg/dL, n (%): 10 (100%)
Week 34 - Post-Infusion
  Serum Uric Acid, Change from Baseline, Mean (SD): −9.11 (3.293) mg/dL
  Serum Uric Acid, Change from Baseline, Median: -8.95 mg/dL
  Serum Uric Acid, Observed, Mean (SD): 0.30 (0.000) mg/dL
  Serum Uric Acid, Observed, Median: 0.30 mg/dL
  sUA <6 mg/dL, n (%): 8 (100%)
Week 34 - Pre-Infusion
  Serum Uric Acid, Change from Baseline, Mean (SD): −8.47 (3.248) mg/dL
  Serum Uric Acid, Change from Baseline, Median: -7.95 mg/dL
